Data as given in patent publication US20250382273A1 (INSTITUT NATIONAL DE LA SANTE ET DE LA RECHERCHE MEDICALE, priority 2022, published 2025).

test system: M. tuberculosis H37Rv_gfp; format: cell-based, Mycobacterium tuberculosis; settings: in combination with pretomanid 20 ng·mL−1; 5 days at 37° C.; […]; read-out: EC50 H37Rv_gfp

| SMILES | EC50 |
| --- | --- |
| O=C(Nc1nc2ccc(Oc3ccccc3)cc2s1)[C@@H]1C2C=CC(C2)[C@@H]1C(=O)O (stereo partly shown) [Example 17, 3-[(6-phenoxy-1,3-benzothiazol-2-yl)carbamoyl]bicyclo[2.2.1]hept-5-ene-2-carboxylic acid] | < 1 µM |
| C#CCOc1cccc2sc(N3C(=O)[C@@H]4[C@H](C3=O)[C@@H]3C=C[C@H]4C3)nc12 [Example 76, (1R,2S,6R,7S)-4-(4-prop-2-ynoxy-1,3-benzothiazol-2-yl)-4-azatricyclo[5.2.1.02,6]dec-8-ene-3,5-dione] | 10 to 20 µM |
| C#CCOc1ccc(-c2ccc3nc(N4C(=O)[C@@H]5[C@H](C4=O)[C@@H]4C=C[C@H]5C4)sc3c2)cc1 [Example 71, (1R,2S,6R,7S)-4-[6-(4-prop-2-ynoxyphenyl)-1,3-benzothiazol-2-yl]-4-azatricyclo[5.2.1.02,6]dec-8-ene-3,5-dione] | < 1 µM |
| CC(C)(C)c1ccc2nc(NC(=O)[C@@H]3C4C=CC(C4)[C@@H]3C(=O)O)sc2c1 (stereo partly shown) [Example 12, 3-[(6-tert-butyl-1,3-benzothiazol-2-yl)carbamoyl]bicyclo[2.2.1]hept-5-ene-2-carboxylic acid] | < 1 µM |
| O=C(Nc1nc2ccc(-c3ccccc3C(F)(F)F)cc2s1)[C@@H]1C2C=CC(C2)[C@@H]1C(=O)O (stereo partly shown) [Example 57, 3-[6-[[2-(trifluoromethyl)phenyl]-1,3-benzothiazol-2-yl]carbamoyl]bicyclo[2.2.1]hept-5-ene-2-carboxylic acid] | 1 to 5 µM |
| O=C(Nc1nc2ccc(Nc3ccc(OC(F)(F)F)cn3)cc2s1)[C@@H]1C2C=CC(C2)[C@@H]1C(=O)O (stereo partly shown) [Example 93, 3-[[6-[[5-(trifluoromethoxy)-2-pyridyl]amino]-1,3-benzothiazol-2-yl]carbamoyl]bicyclo[2.2.1]hept-5-ene-2-carboxylic acid] | < 1 µM |
| O=C1[C@@H]2C3C=CC(C3)[C@@H]2C(=O)N1c1nc2ccc(Nc3ccc(F)cn3)cc2s1 [Example 87, 4-[6-[(5-fluoro-2-pyridyl)amino]-1,3-benzothiazol-2-yl]-4-azatricyclo[5.2.1.02,6]dec-8-ene-3,5-dione] | < 1 µM |
| O=C(Nc1nc2ccc(Nc3cccc(F)n3)cc2s1)[C@@H]1C2C=CC(C2)[C@@H]1C(=O)O (stereo partly shown) [Example 88, 3-[[6-[(6-fluoro-2-pyridyl)amino]-1,3-benzothiazol-2-yl]carbamoyl]bicyclo[2.2.1]hept-5-ene-2-carboxylic acid] | < 1 µM |
| COc1cc(Nc2ccc3nc(N4C(=O)[C@@H]5C6C=CC(C6)[C@@H]5C4=O)sc3c2)ccn1 [Example 92, 4-[6-[(2-methoxy-4-pyridyl)amino]-1,3-benzothiazol-2-yl]-4-azatricyclo[5.2.1.02,6]dec-8-ene-3,5-dione] | 1 to 5 µM |
| O=C(Nc1nc2ccc(Oc3ccncc3)cc2s1)[C@@H]1C2C=CC(C2)[C@@H]1C(=O)O (stereo partly shown) [Example 24, 3-[[6-(4-pyridyloxy)-1,3-benzothiazol-2-yl]carbamoyl]bicyclo[2.2.1]hept-5-ene-2-carboxylic acid] | 5 to 10 µM |
| N#Cc1ccnc(Oc2ccc3nc(N4C(=O)[C@@H]5[C@H](C4=O)[C@@H]4C=C[C@H]5C4)sc3c2)c1 [Example 31, 2-[[2-[(1R,2S,6R,7S)-3,5-dioxo-4-azatricyclo[5.2.1.02,6]dec-8-en-4-yl]-1,3-benzothiazol-6-yl]oxy]pyridine-4-carbonitrile] | 1 to 5 µM |
| CC(C)(C)C#Cc1ccc2nc(NC(=O)[C@@H]3C4C=CC(C4)[C@@H]3C(=O)O)sc2c1 (stereo partly shown) [Example 78, 3-[[6-(3,3-dimethylbut-1-ynyl)-1,3-benzothiazol-2-yl]carbamoyl]bicyclo [2.2.1]hept-5-ene-2-carboxylic acid] | < 1 µM |
| COc1ccc2nc(NC(=O)[C@@H]3C4C=CC(C4)[C@@H]3C(=O)O)sc2c1 (stereo partly shown) [Example 6, 3-[(6-methoxy-1,3-benzothiazol-2-yl)carbamoyl]bicyclo[2.2.1]hept-5-ene-2-carboxylic acid] | 1 to 5 µM |
| O=C1[C@@H]2C3C=CC(C3)[C@@H]2C(=O)N1c1nc2c(O)cccc2s1 [Example 74] | < 1 µM |
| Cc1cc2nc(NC(=O)[C@@H]3C4C=CC(C4)[C@@H]3C(=O)O)sc2cc1C (stereo partly shown) [Example 14, 3-[(5,6-dimethyl-1,3-benzothiazol-2-yl)carbamoyl]bicyclo[2.2.1]hept-5-ene-2-carboxylic acid] | < 1 µM |
| O=C(Nc1nc2ccc(-c3cncnc3)cc2s1)[C@@H]1C2C=CC(C2)[C@@H]1C(=O)O (stereo partly shown) [Example 80, 3-[(6-pyrimidin-5-yl-1,3-benzothiazol-2-yl)carbamoyl]bicyclo[2.2.1]hept-5-ene-2-carboxylic acid] | 10 to 20 µM |
| O=C(Nc1nc2ccc(C(F)(F)F)cc2s1)[C@@H]1C2C=CC(C2)[C@@H]1C(=O)O (stereo partly shown) [Example 43, 3-[[6-(trifluoromethyl)-1,3-benzothiazol-2-yl]carbamoyl]bicyclo[2.2.1]hept-5-ene-2-carboxylic acid] | < 1 µM |

| SMILES | EC50 |
| --- | --- |
| O=C(Nc1nc2ccc(-c3ccncc3)cc2s1)[C@@H]1C2C=CC(C2)[C@@H]1C(=O)O (stereo partly shown) [Example 64, 3-[[6-(4-pyridyl)-1,3-benzothiazol-2-yl]carbamoyl]bicyclo[2.2.1]hept-5-ene-2-carboxylic acid] | 1 to 5 µM |
| COc1ccc(-c2ccc3nc(NC(=O)[C@@H]4C5C=CC(C5)[C@@H]4C(=O)O)sc3c2)cc1 (stereo partly shown) [Example 54, 3-[[6-(4-methoxyphenyl)-1,3-benzothiazol-2-yl]carbamoyl]bicyclo[2.2.1]hept-5-ene-2-carboxylic acid] | < 1 µM |
| C#CCOc1ccc2nc(N3C(=O)[C@@H]4[C@H](C3=O)[C@@H]3C=C[C@H]4C3)sc2c1 [Example 73, (1R,2S,6R,7S)-4-(6-prop-2-ynoxy-1,3-benzothiazol-2-yl)-4-azatricyclo[5.2.1.02,6]dec-8-ene-3,5-dione] | < 1 µM |
| COc1ccc2sc(NC(=O)[C@@H]3C4C=CC(C4)[C@@H]3C(=O)O)nc2c1 (stereo partly shown) [Example 5, 3-[(5-methoxy-1,3-benzothiazol-2-yl)carbamoyl]bicyclo[2.2.1]hept-5-ene-2-carboxylic acid] | 1 to 5 µM |
| O=C(Nc1nc2ccc(I)cc2s1)[C@@H]1C2C=CC(C2)[C@@H]1C(=O)O (stereo partly shown) [Example 49, 3-[(6-iodo-1,3-benzothiazol-2-yl)carbamoyl]bicyclo[2.2.1]hept-5-ene-2-carboxylic acid] | 1 to 5 µM |
| Cc1ccc2nc(N3C(=O)[C@@H]4[C@@H]5CC[C@@H](C5)[C@@H]4C3=O)sc2c1 [Example 4, (1S,2S,6R,7R)-4-(6-methyl-1,3-benzothiazol-2-yl)-4-azatricyclo[5.2.1.02,6]decane-3,5-dione] | 10 to 20 µM |
| O=C(Nc1nc2cc(Br)ccc2s1)[C@@H]1C2C=CC(C2)[C@@H]1C(=O)O (stereo partly shown) [Example 48, 3-[(5-bromo-1,3-benzothiazol-2-yl)carbamoyl]bicyclo[2.2.1]hept-5-ene-2-carboxylic acid] | 1 to 5 µM |
| O=C(Nc1nc2ccc(Oc3ncccc3C(F)(F)F)cc2s1)[C@@H]1C2C=CC(C2)[C@@H]1C(=O)O (stereo partly shown) [Example 25, 3-[[6-[[3-(trifluoromethyl)-2-pyridyl]oxy]-1,3-benzothiazol-2-yl]carbamoyl]bicyclo[2.2.1]hept-5-ene-2-carboxylic acid] | 1 to 5 µM |
| O=C(Nc1nc2ccc(Nc3cncc(C(F)(F)F)c3)cc2s1)[C@@H]1C2C=CC(C2)[C@@H]1C(=O)O (stereo partly shown) [Example 91, 3-[[6-[[5-(trifluoromethyl)-3-pyridyl]amino]-1,3-benzothiazol-2-yl]carbamoyl]bicyclo[2.2.1]hept-5-ene-2-carboxylic acid] | 1 to 5 µM |
| O=C(Nc1nc2ccc(Nc3cc(F)ccn3)cc2s1)[C@@H]1C2C=CC(C2)[C@@H]1C(=O)O (stereo partly shown) [Example 85, 3-[[6-[(4-fluoro-2-pyridyl)amino]-1,3-benzothiazol-2-yl]carbamoyl]bicyclo[2.2.1]hept-5-ene-2-carboxylic acid] | < 1 µM |
| O=C1[C@@H]2[C@H](C(=O)N1c1nc3ccc(OC(F)(F)F)cc3s1)[C@@H]1C=C[C@H]2C1 [Example 45, (1R,2S,6R,7S)-4-[6-(trifluoromethoxy)-1,3-benzothiazol-2-yl]-4-azatricyclo[5.2.1.02,6]dec-8-ene-3,5-dione] | 1 to 5 µM |
| O=C(Nc1nc2ccc(Nc3ccc(C(F)(F)F)cn3)cc2s1)[C@@H]1C2C=CC(C2)[C@@H]1C(=O)O (stereo partly shown) [Example 96, 3-[[6-[[5-(trifluoromethyl)-2-pyridyl]amino]-1,3-benzothiazol-2-yl]carbamoyl]bicyclo[2.2.1]hept-5-ene-2-carboxylic acid] | 1 to 5 µM |
| O=C(Nc1nc2cc3c(cc2s1)OCCO3)[C@@H]1C2C=CC(C2)[C@@H]1C(=O)O (stereo partly shown) [Example 10, 3-(6,7-dihydro-[1,4]dioxino[2,3-f][1,3]benzothiazol-2-ylcarbamoyl) bicyclo[2.2.1]hept-5-ene-2-carboxylic acid] | 10 to 20 µM |
| Cc1ccc2sc(NC(=O)[C@@H]3C4C=CC(C4)[C@@H]3C(=O)O)nc2c1C (stereo partly shown) [Example 15, 3-[(4,5-dimethyl-1,3-benzothiazol-2-yl)carbamoyl]bicyclo[2.2.1]hept-5-ene-2-carboxylic acid] | < 1 µM |
| O=C1[C@@H]2[C@H](C(=O)N1c1nc3ccc(Oc4ncccc4C(F)(F)F)cc3s1)[C@@H]1C=C[C@H]2C1 [Example 26, (1R,2S,6R,7S)-4-[6-[[3-(trifluoromethyl)-2-pyridyl]oxy]-1,3-benzothiazol-2-yl]-4-azatricyclo[5.2.1.02,6]dec-8-ene-3,5-dione] | 1 to 5 µM |
| O=C(Nc1nc2ccc(Oc3ccc(C(F)(F)F)cc3)cc2s1)[C@@H]1C2C=CC(C2)[C@@H]1C(=O)O (stereo partly shown) [Example 22, 3-[[6-[4-(trifluoromethyl)phenoxy]-1,3-benzothiazol-2-yl]carbamoyl]bicyclo[2.2.1]hept-5-ene-2-carboxylic acid] | 1 to 5 µM |
| O=C(Nc1nc2ccc(C3CCCCC3)cc2s1)[C@@H]1C2C=CC(C2)[C@@H]1C(=O)O (stereo partly shown) [Example 52, 3-[(6-cyclohexyl-1,3-benzothiazol-2-yl)carbamoyl]bicyclo[2.2.1]hept-5-ene-2-carboxylic acid] | < 1 µM |

same assay, conditions: in combination with pretomanid, unit inferred; read-out: average EC50 H37Rv_gfp

| SMILES | EC50 |
| --- | --- |
| CC(C)(C)C#Cc1ccc2nc(NC(=O)[C@@H]3C4C=CC(C4)[C@@H]3C(=O)O)sc2c1 (stereo partly shown) [Example 78, 3-[[6-(3,3-dimethylbut-1-ynyl)-1,3-benzothiazol-2-yl]carbamoyl]bicyclo [2.2.1]hept-5-ene-2-carboxylic acid] | 0.13 µM |
| COc1ccc(-c2ccc3nc(NC(=O)[C@@H]4C5C=CC(C5)[C@@H]4C(=O)O)sc3c2)cc1 (stereo partly shown) [Example 54, 3-[[6-(4-methoxyphenyl)-1,3-benzothiazol-2-yl]carbamoyl]bicyclo[2.2.1]hept-5-ene-2-carboxylic acid] | 0.11 µM |

same assay, conditions: read-out: EC50 H37Rv_gfp

| SMILES | EC50 |
| --- | --- |
| O=C1[C@@H]2[C@H](C(=O)N1c1nc3ccc(-c4ccc(O)cc4)cc3s1)[C@@H]1C=C[C@H]2C1 [Example 63, (1R,2S,6R,7S)-4-[6-(4-hydroxyphenyl)-1,3-benzothiazol-2-yl]-4-azatricyclo[5.2.1.02,6]dec-8-ene-3,5-dione] | 5 to 10 µM |
